Measurements reported in US7608612B2, “Radiosensitizer formulations and methods for use” (priority 2005, dated 2009).
Entries after “also recorded” stand apart in the source; their conditions may differ.

Columns and labels:
Lewis lung carcinoma [1] = assay: In vivo growth retardation experiment 2 with Lewis lung carcinoma (comparison with misonidazole); set-up: species or system mice; conditions: for tumor growth course (in words): mice with Lewis lung carcinoma, radiosensitizer plus radiation
Source text: Another growth retardation study was done in mice implanted with Lewis lung carcinoma comparing 4(5)-nitrohistidine (NHis) plus radiation treatment to misonidazole plus radiation treatment.

tumors = conditions: number of trials out of all trials; cited from earlier work
[2] = system: Chinese hamster ovary (CHO) cells; assay: In vitro study of 4(5)-nitrohistidine as a radiosensitizer, 300 cGy 9 MeV electron beam; assay type: cell-based
Protocol: FIG. 2A is an in vitro study of nitrohistidine on Chinese hamster ovary (CHO) cells. CHO cells were in use in an F12 medium with fetal calf serum. A 9 MeV electron beam was used to irradiate the Petri dishes, dose 300 cGy, and a concentration range of 1-4 mM nitrohistidine was employed.
FIG. 2B is an in vitro study of nitrohistidine compared to misonidazole on CHO cells.
An in vitro study using Chinese hamster ovary (CHO) cells was carried out using F12 medium with fetal calf serum for growth of the CHO cells. A 9 MeV electron beam, generated by a Varian Clinac 1800 instrument, was used to irradiate the Petri dishes, at a dose of 300 cGy, and a concentration of 1 to 4 mM 4(5)-nitrohistidine was added alone, or in combination with the radiation dose.

[3] = system: Chinese hamster ovary (CHO) cells; assay: In vitro study of 4(5)-nitrohistidine as a radiosensitizer under hypoxic conditions; assay type: cell-based; conditions: 30 min hypoxic pre-incubation
Lewis lung carcinoma [4] = assay: In vivo growth retardation experiment 1 with Lewis lung carcinoma; set-up: species or system mice (C-57)
Protocol: FIG. 4 is an in vivo Growth Retardation Study of Lewis lung carcinoma in […]. Groups of 5-6 mice were subcutaneously implanted with Lewis Lung Carcinoma cells and permitted to grow a small measurable tumor in the hind leg. Radiosensitizers were given by i.p. injection. In some comparative experiments, nitrohistidine was employed at half the concentration of misonidazole. The measurable tumors were treated with a single 500 cGy fraction of 9 MeV electrons.
FIG. 5 is a tumor size assessment plot from the Growth Retardation Study of FIG. 4, showing tumor size as a function of time (in days).
Groups of 5-6 mice (C-57) were subcutaneously implanted in the hind leg with Lewis lung carcinoma cells and the cells were permitted to grow until a measurable tumor was evident. Radiosensitizers were administered using i.p. injection at 2 mM concentration, and then treated with a single 500 cGy dose administered with a 9 MeV electron beam and tumor size measured daily for a period of 9 days. Control mice were implanted with tumor cells and left untreated.

protozoa = conditions: Brossi et al.; cited from earlier work
[5] = system: Chinese hamster ovary (CHO) cells; assay: In vitro synergism of buthionine sulfoximine and 4(5)-nitrohistidine as radiosensitizers; assay type: cell-based; conditions: compounds at 2 mM, radiation 0 to 10 Gy
Protocol: Buthionine sulfoximine is an agent known to deplete the levels of endogenous detoxifier and radioprotector glutathione. […] In several experiments, as here, the enhancement ration was greater than two with both agents present. CHO cells were used in the experiments and trhe compounds were present at 2 mM concentration as indicated.
Chinese hamster ovary cells were grown on F12 medium supplemented with fetal calf serum. Cells were treated with dosages of radiation from 0 to 10 Gy, using a 9 MeV electron beam as above, either alone or in the presence of nitrohistidine, buthionine sulfoximine, or 4(5)-nitrohistidine plus buthionine sulfoximine together. When present, the buthionine sulfoximine and 4(5)-nitrohistidine were added at 2 mM concentration. […] S. fractions remaining for the combined dual drug/radiation treatment indicate an initial lag time, before continued depletion of cells surviving, down to less than 0.01 SF at 10 Gy in the presence of both NHis and BSO. The enhancement ratio calculated for the combined treatment was greater than two over that of any other treatment combination.

[6] = first group of mice, NHis+XRT, day 9
[7] = second group of mice, NHis+XRT, day 9

| Compound | tumor growth course (in words) (Lewis lung carcinoma [1]) | clinical trials that suggested any clinical benefit as a radiosensitizer (tumors) | toxicity of nitrohistidine alone (S. fraction, surviving fraction of cells) ([2]; 1-4 mM nitrohistidine, no radiation) | effective concentration range for radiosensitization ([2]; 300 cGy) [mM] | S. fraction (surviving fraction) in the presence of ionizing radiation (Nitro+XRT) ([2]; 300 cGy, all four concentrations 1 to 4 mM) | radiosensitizing effectiveness of 2 mM compared with 5 mM ([2]; additional studies, data not shown) | S. Fraction at 10 Gy ([3]; 2 mM plus radiation) | calculated enhancement ratio ([3]; 2 mM, at the 0.1 level SF value (90% killing), versus radiation alone) | growth retardation compared to the control group (Lewis lung carcinoma [4]; [6]) | growth retardation compared to the group treated with radiation alone (Lewis lung carcinoma [4]; [6]) | tumor size at day 9 (Lewis lung carcinoma [4]; first group of mice, NHis+XRT, i.p., single 500 cGy dose) | tumor size at day 9 (Lewis lung carcinoma [4]; second group of mice, NHis alone without radiation (same value given for control)) | tumor size at day 9 (Lewis lung carcinoma [4]; second group of mice, NHis+XRT) | growth retardation compared to the XRT treatment alone (Lewis lung carcinoma [4]; [7]) [%] | growth retardation compared to the control or NHis alone (Lewis lung carcinoma [4]; [7]) | in vivo radiosensitizer potency compared with misonidazole (Lewis lung carcinoma [1]; plus radiation, in vivo) | efficacy as an anti-protozoal agent relative to known anti-protozoal nitroimidazole agents (protozoa) | radiosensitization / synergism (in words) [5] |
| --- | --- | --- | --- | --- | --- | --- | --- | --- | --- | --- | --- | --- | --- | --- | --- | --- | --- | --- |
| COCC(O)Cn1ccnc1[N+](=O)[O-] (stereo not shown) [misonidazole, reference compound] | no ability to retard tumor growth | 5 of 38 |  |  |  |  |  |  |  |  |  |  |  |  |  |  |  |  |
| NC(Cc1nc[nH]c1[N+](=O)[O-])C(=O)O (stereo not shown) [4(5)-nitrohistidine] | plateau in tumor growth after 9-10 days |  | did not appear to possess toxicity by itself; also recorded: did not exhibit any toxicity | 1 to 4 | under 0.6 | nearly as effective as 5 mM | about 0.006 | 1.38 | about 22% | about 10% | about 18 mm | about 21 mm | about 15 mm | ~35 | about 29% | more potent and effective radiosensitizer than misonidazole | zero |  |
| CCCCS(=N)(=O)CCC(N)C(=O)O (stereo not shown) [Buthionine sulfoximine, buthionine sulfoximine] |  |  |  |  |  |  |  |  |  |  |  |  |  |  |  |  |  | some radiosensitization properties of its own |
